# Measurements from DBAASP.
# Legend:
# Experiment in all cases: ≥ marks a high value that may be exact or a test limit, other limits are often not marked, values filed in µg/mL are converted to µM
# [1] = test system: Aeromonas hydrophila
# [2] = test system: Vibrio harveyi
# [3] = test system: Acinetobacter baumannii ATCC BAA-747
# [4] = test system: Enterococcus faecium ATCC 700221
# [5] = test system: Escherichia coli ATCC 25922
# [6] = test system: Klebsiella pneumoniae ATCC 700603
# [7] = test system: Pseudomonas aeruginosa ATCC 27853
# [8] = test system: Salmonella enterica ATCC 6539
# [9] = test system: Staphylococcus aureus ATCC 43300
# [10] = test system: Acinetobacter baumannii ATCC 19606
# [11] = test system: Candida albicans ATCC 90028
# [12] = test system: Cryptococcus neoformans ATCC 208821
# [13] = test system: Staphylococcus aureus SH1000
# [14] = test system: Escherichia coli W3110
# [15] = test system: Klebsiella pneumoniae ATCC BAA-1705
# [16] = test system: Acinetobacter baumannii 7226/16
# [17] = test system: Escherichia coli ESBL 521/17
# [18] = test system: Escherichia coli ML-35p
# [19] = test system: Klebsiella pneumoniae ESBL 344/17
# [20] = test system: Pseudomonas aeruginosa 522/17
# [21] = test system: Staphylococcus aureus 1399/17
# [22] = test system: Staphylococcus aureus ATCC 33591
# [23] = test system: Staphylococcus aureus SG511
# [24] = test system: Acinetobacter baumannii LMG 01041
# [25] = test system: Escherichia coli LMG 15862
# [26] = test system: Klebsiella aerogenes LMG 02094
# [27] = test system: Klebsiella pneumoniae LMG 20218
# [28] = test system: Pseudomonas aeruginosa LMG 6395
# [29] = test system: Acinetobacter baumannii
# [30] = test system: Bacillus cereus ATCC 11778
# [31] = test system: Enterococcus faecalis ATCC 29212
# [32] = test system: Escherichia coli O157:H7
# [33] = test system: Listeria monocytogenes 10403s
# [34] = test system: Salmonella enterica subsp. enterica serovar Typhimurium ATCC 13311
# [35] = test system: Shigella sonnei ATCC 11060
# [36] = test system: Staphylococcus aureus ATCC 25923
# [37] = test system: Staphylococcus epidermidis ATCC 12228
# [38] = test system: Vibrio cholerae O1 Inaba
# [39] = test system: Cryptococcus neoformans ATCC 32264
# [40] = test system: Escherichia coli NCTC 10418
# [41] = test system: Staphylococcus aureus NCTC 12981
smiles,measurement,setting,value
CC[C@H](C)[C@H](NC(=O)[C@H](C)NC(=O)[C@H](CCCN=C(N)N)NC(=O)[C@H](Cc1cnc[nH]1)NC(=O)[C@@H](NC(=O)[C@H](C)NC(=O)[C@H](CCCN=C(N)N)NC(=O)[C@@H](NC(=O)CNC(=O)[C@H](Cc1cnc[nH]1)NC(=O)[C@H](CO)NC(=O)[C@@H](NC(=O)[C@H](Cc1c[nH]c2ccccc12)NC(=O)CNC(=O)[C@@H](NC(=O)[C@@H](NC(=O)[C@H](Cc1cnc[nH]1)NC(=O)[C@H](Cc1cnc[nH]1)NC(=O)[C@@H](NC(=O)[C@@H](N)Cc1ccccc1)[C@@H](C)CC)[C@@H](C)CC)[C@@H](C)CC)[C@@H](C)CC)C(C)C)[C@@H](C)CC)C(=O)N[C@@H](Cc1cnc[nH]1)C(N)=O [FIHHIIGWISHGVRAIHRAIH],MIC,[1],16 µM
same,MIC,[2],8 µM
NCC(=O)NCC(=O)N[C@@H](Cc1cnc[nH]1)C(=O)NCC(=O)N[C@@H](Cc1c[nH]c2ccccc12)C(=O)N[C@@H](CCCN=C(N)N)C(=O)N[C@@H](Cc1c[nH]c2ccccc12)C(=O)N[C@@H](Cc1ccc(O)cc1)C(=O)N[C@@H](CS)C(=O)N[C@@H](CCCN=C(N)N)C(N)=O [GGHGWRWYCR],MIC,[3],25 µM
same,MIC,[4],25 µM
same,MIC,[5],3 µM
same,MIC,[6],25 µM
same,MIC,[7],25 µM
same,MIC,[8],6 µM
same,MIC,[9],3 µM
CC[C@H](C)[C@H](NC(=O)[C@H](CC(=O)O)NC(=O)[C@H](Cc1ccccc1)NC(=O)[C@H](CC(C)C)NC(=O)CN)C(=O)N[C@H](C(=O)N[C@@H](CCCCN)C(=O)N[C@@H](CCCCN)C(=O)N[C@H](C(=O)N[C@H](C(=O)NCC(=O)N[C@@H](C)C(=O)N[C@@H](CC(C)C)C(=O)NCC(N)=O)C(C)C)C(C)C)C(C)C [GLFDIVKKVVGALG],MIC,[10],> 23 µM
same,MIC,[11],23 µM
same,MIC,[12],23 µM
same,MIC,[5],> 23 µM
same,MIC,[6],> 23 µM
same,MIC,[7],> 23 µM
same,MIC,[9],> 23 µM
same,MIC,[13],≥ 50 µM
CC[C@H](C)[C@H](N)C(=O)N[C@@H](CC(C)C)C(=O)N[C@@H](Cc1c[nH]c2ccccc12)C(=O)N[C@@H](C)C(=O)N[C@@H](CCCCN)C(=O)N[C@@H](Cc1c[nH]c2ccccc12)C(=O)NCC(=O)N[C@@H](CC(C)C)C(=O)N[C@@H](CCCCN)C(=O)N[C@@H](CC(C)C)C(=O)N[C@@H](CC(C)C)C(=O)N[C@@H](CCCN=C(N)N)C(=O)N[C@@H](Cc1ccc(O)cc1)C(=O)N[C@@H](CCCN=C(N)N)C(=O)N[C@@H](CCCN=C(N)N)C(=O)N[C@H](C(=O)N[C@@H](Cc1ccc(O)cc1)C(=O)O)[C@@H](C)CC [ILWAKWGLKLLRYRRIY],MIC,[14],4 µM
same,MIC,[15],≥ 64 µM
CC[C@H](C)[C@H](NC(=O)[C@H](CCCN=C(N)N)NC(=O)[C@@H](NC(=O)[C@@H]1CCCN1C(=O)[C@H](Cc1c[nH]c2ccccc12)NC(=O)[C@@H]1CCCN1C(=O)[C@H](CCCN=C(N)N)NC(=O)[C@H](CCCN=C(N)N)NC(=O)[C@H](Cc1ccccc1)NC(=O)[C@@H]1CCCN1C(=O)[C@H](CC(C)C)NC(=O)[C@H](CCCN=C(N)N)NC(=O)[C@H](Cc1ccccc1)NC(=O)[C@@H](N)CCCN=C(N)N)[C@@H](C)CC)C(=O)N[C@@H](Cc1cnc[nH]1)C(=O)N1CCC[C@H]1C(=O)N1CCC[C@H]1C(=O)N1CCC[C@H]1C(=O)N[C@@H](Cc1ccccc1)C(=O)N[C@@H](Cc1ccc(O)cc1)C(=O)N1CCC[C@H]1C(=O)N[C@@H](Cc1c[nH]c2ccccc12)C(=O)N1CCC[C@H]1C(=O)N[C@@H](Cc1ccccc1)C(=O)N[C@@H](CCCN=C(N)N)C(=O)N[C@@H](CCCN=C(N)N)C(=O)N[C@@H](Cc1ccccc1)C(=O)N[C@@H](CC(C)C)C(=O)O [RFRLPFRRPWPIRIHPPPFYPWPFRRFL],MIC,[16],11.3 µM
same,MIC,[17],4 µM
same,MIC,[18],4 µM
same,MIC,[19],8 µM
same,MIC,[20],16 µM
same,MIC,[21],8 µM
same,MIC,[22],8 µM
same,MIC,[23],0.5 µM
CC[C@H](C)[C@H](NC(=O)[C@H](CCCN=C(N)N)NC(=O)[C@H](CCCCN)NC(=O)[C@H](CCCN=C(N)N)NC(=O)[C@@H](NC(=O)[C@@H](N)CCCN=C(N)N)[C@@H](C)CC)C(=O)N[C@@H](CCCCN)C(=O)N[C@@H](CCCCN)C(=O)N[C@@H](Cc1c[nH]c2ccccc12)C(=O)N[C@@H](CC(C)C)C(=O)N[C@@H](CCCN=C(N)N)C(N)=O [RIRKRIKKWLR],MIC,[24],≥ 256 µM
same,MIC,[25],16 µM
same,MIC,[26],≥ 256 µM
same,MIC,[27],≥ 256 µM
same,MIC,[28],16 µM
CC[C@H](C)[C@H](NC(=O)[C@H](CCCN=C(N)N)NC(=O)[C@H](CCCCN)NC(=O)[C@H](CCCCN)NC(=O)[C@@H](NC(=O)[C@H](CCCCN)NC(=O)[C@H](CCC(=O)O)NC(=O)[C@H](CCCCN)NC(=O)[C@@H](N)CCCN=C(N)N)[C@@H](C)CC)C(=O)NCC(=O)N[C@@H](CCCCN)C(=O)N[C@H](C(=O)N[C@@H](CC(=O)O)C(=O)N[C@@H](CCCN=C(N)N)C(=O)N[C@@H](CC(C)C)C(N)=O)[C@@H](C)CC [RKEKIKKRIGKIDRL],MIC,[29],≥ 133 µM
same,MIC,[30],≥ 133 µM
same,MIC,[31],> 133 µM
same,MIC,[5],> 133 µM
same,MIC,[32],≥ 133 µM
same,MIC,[33],≥ 133 µM
same,MIC,[7],> 133 µM
same,MIC,[34],≥ 133 µM
same,MIC,[35],≥ 133 µM
same,MIC,[36],> 133 µM
same,MIC,[37],> 133 µM
same,MIC,[38],≥ 133 µM
NCCCC[C@H](NC(=O)[C@H](CCCCN)NC(=O)[C@H](CCC(N)=O)NC(=O)[C@@H](N)CCCN=C(N)N)C(N)=O [RQKK],MIC,[39],≥ 100 µM
NC(=O)CC[C@H](NC(=O)[C@H](CCCN=C(N)N)NC(=O)[C@H](CCCN=C(N)N)NC(=O)[C@@H](N)Cc1c[nH]c2ccccc12)C(=O)N[C@@H](CCCN=C(N)N)C(=O)N[C@@H](Cc1c[nH]c2ccccc12)C(N)=O [WRRQRW],MIC,[40],≥ 130 µM
same,MIC,[41],≥ 130 µM
